Results as given in PubChem BioAssay AID1963834 (Molecular Pharmacology Branch, DTP, NCI, 2024).

Test system: 873145-292-R-J1-PDC complex spheroid viability
Experiment: Anticancer human tumor 873145-292-R-J1-PDC patient-derived renal clear cell carcinoma cell line growth inhibition [POLQ]
Conditions: for IC50: curve of first compound; for viability, T/C: stronger effect = lower value
How it was run: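 PDC + HUVEC + MSC complex spheroids; POLQ inhibitors ± partner drugs; top conc. at/near clinical Cmax, else 10 microM (SN-38 1 microM), half-log dilutions; 37 degrees C, 5% CO2.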

[1] = second compound 0.0316 µM, first compound 0.0316 µM
[2] = second compound 0.0316 µM, first compound 0.1 µM
[3] = second compound 0.0316 µM, first compound 0.316 µM
[4] = second compound 0.0316 µM, first compound 1 µM
[5] = second compound 0.0316 µM, first compound 3.16 µM
[6] = second compound 0.0316 µM, first compound 10 µM
[7] = second compound 0.1 µM, first compound 0.0316 µM
[8] = second compound 0.1 µM, first compound 0.1 µM
[9] = second compound 0.1 µM, first compound 0.316 µM
[10] = second compound 0.1 µM, first compound 1 µM
[11] = second compound 0.1 µM, first compound 3.16 µM
[12] = second compound 0.1 µM, first compound 10 µM
[13] = second compound 0.316 µM, first compound 0.0316 µM
[14] = second compound 0.316 µM, first compound 0.1 µM
[15] = second compound 0.316 µM, first compound 0.316 µM
[16] = second compound 0.316 µM, first compound 1 µM
[17] = second compound 0.316 µM, first compound 3.16 µM
[18] = second compound 0.316 µM, first compound 10 µM
[19] = second compound 1 µM, first compound 0.0316 µM
[20] = second compound 1 µM, first compound 0.1 µM
[21] = second compound 1 µM, first compound 0.316 µM
[22] = second compound 1 µM, first compound 1 µM
[23] = second compound 1 µM, first compound 3.16 µM
[24] = second compound 1 µM, first compound 10 µM
[25] = second compound 3.16 µM, first compound 0.0316 µM
[26] = second compound 3.16 µM, first compound 0.1 µM
[27] = second compound 3.16 µM, first compound 0.316 µM
[28] = second compound 3.16 µM, first compound 1 µM
[29] = second compound 3.16 µM, first compound 3.16 µM
[30] = second compound 3.16 µM, first compound 10 µM
[31] = second compound 10 µM, first compound 0.0316 µM
[32] = second compound 10 µM, first compound 0.1 µM
[33] = second compound 10 µM, first compound 0.316 µM
[34] = second compound 10 µM, first compound 1 µM
[35] = second compound 10 µM, first compound 3.16 µM
[36] = second compound 10 µM, first compound 10 µM
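Further: spheroids exposed to compounds for 7 days before viability readout.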
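Wherever viability, T/C is given: luminescence signal used as surrogate for viable cell content; 100% = DMSO vehicle control viability.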

Question: Which results are given for CCCS(=O)(=O)Nc1ccc(F)c(C(=O)c2c[nH]c3ncc(-c4ccc(Cl)cc4)cc23)c1F + Nc1ccc(C#CCN(C(=O)Cc2ncc(C(F)(F)F)cc2C(F)(F)F)c2ccc(F)cc2)nn1?
Answer: IC50 (second compound 0.0316 µM): > 10 µM; IC50 (second compound 0.1 µM): > 10 µM; IC50 (second compound 0.316 µM): > 10 µM; IC50 (second compound 1 µM): > 10 µM; IC50 (second compound 3.16 µM): > 10 µM; IC50 (second compound 10 µM): > 10 µM; viability, T/C [1]: 106%; viability, T/C [2]: 106%; viability, T/C [3]: 115%; viability, T/C [4]: 97%; viability, T/C [5]: 103%; viability, T/C [6]: 71.2%; viability, T/C [7]: 103%; viability, T/C [8]: 110%; viability, T/C [9]: 91.9%; viability, T/C [10]: 98%; viability, T/C [11]: 105%; viability, T/C [12]: 63.3%; viability, T/C [13]: 109%; viability, T/C [14]: 107%; viability, T/C [15]: 93.3%; viability, T/C [16]: 112%; viability, T/C [17]: 99.2%; viability, T/C [18]: 75.6%; viability, T/C [19]: 98.7%; viability, T/C [20]: 98.9%; viability, T/C [21]: 102%; viability, T/C [22]: 102%; viability, T/C [23]: 91.1%; viability, T/C [24]: 63%; viability, T/C [25]: 106%; viability, T/C [26]: 113%; viability, T/C [27]: 108%; viability, T/C [28]: 108%; viability, T/C [29]: 101%; viability, T/C [30]: 75.4%; viability, T/C [31]: 121%; viability, T/C [32]: 121%; viability, T/C [33]: 111%; viability, T/C [34]: 107%; viability, T/C [35]: 110%; viability, T/C [36]: 78.5%

Question: Which results are given for COc1ccc([C@@H](O)c2cc(-c3ncnc4cc(N5CCOCC5)ccc34)c(F)cc2Cl)nn1 + Nc1ccc(C#CCN(C(=O)Cc2ncc(C(F)(F)F)cc2C(F)(F)F)c2ccc(F)cc2)nn1?
Answer: IC50 (second compound 0.0316 µM): 4.69 µM; IC50 (second compound 0.1 µM): 5.13 µM; IC50 (second compound 0.316 µM): 5.16 µM; IC50 (second compound 1 µM): 6.14 µM; IC50 (second compound 3.16 µM): 5.93 µM; IC50 (second compound 10 µM): > 10 µM; viability, T/C [1]: 102%; viability, T/C [2]: 91.9%; viability, T/C [3]: 86.2%; viability, T/C [4]: 64.2%; viability, T/C [5]: 54.1%; viability, T/C [6]: 44.4%; viability, T/C [7]: 92.8%; viability, T/C [8]: 91.4%; viability, T/C [9]: 82.9%; viability, T/C [10]: 64.9%; viability, T/C [11]: 58.1%; viability, T/C [12]: 42.2%; viability, T/C [13]: 90.8%; viability, T/C [14]: 114%; viability, T/C [15]: 76.1%; viability, T/C [16]: 67.3%; viability, T/C [17]: 60.7%; viability, T/C [18]: 41.1%; viability, T/C [19]: 92.4%; viability, T/C [20]: 85.4%; viability, T/C [21]: 92.1%; viability, T/C [22]: 78.6%; viability, T/C [23]: 59.8%; viability, T/C [24]: 43%; viability, T/C [25]: 99.5%; viability, T/C [26]: 93.6%; viability, T/C [27]: 81.4%; viability, T/C [28]: 74%; viability, T/C [29]: 51%; viability, T/C [30]: 47.3%; viability, T/C [31]: 104%; viability, T/C [32]: 105%; viability, T/C [33]: 86.5%; viability, T/C [34]: 81%; viability, T/C [35]: 60%; viability, T/C [36]: 53.6%
